Results published in publication PMC2593051, “Biochemical and Genetic Characterization of PspE and GlpE, Two Single-domain Sulfurtransferases of Escherichia coli” (The Open Microbiology Journal, 2008).
Structures can show the parent of a compound that is named as a salt.

Tests used:
PspE (fraction PspE2) [1] = target: T1, PspE (fraction PspE2) (Escherichia coli, UniProt P23857); assay: chemical inactivation by cysteine reagent; type: biochemical; conditions: covalent; active-site cysteine; fraction PspE1 more tolerant than PspE2; data not shown
T1 construct: 85 residues, 9428 Da; untagged; overexpressed from pHC4.1 (pT7-7) in E. coli BL21(DE3), freeze-thaw extract, SP cation exchange; partly persulfide/sulfonate modified at single cysteine
T1 sequence (P23857 20-104): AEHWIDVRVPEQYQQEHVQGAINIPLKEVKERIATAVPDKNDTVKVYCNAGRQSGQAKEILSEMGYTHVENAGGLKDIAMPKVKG

PspE (fraction PspE2) [2] = target: T1, PspE (fraction PspE2); assay: rhodanese assay; type: biochemical; conditions: Tris-acetate pH 8.6; for % inhibition at 0.25 M: 250000 µM, anion inhibition
purified protein [3] = substrate: O=S(O)(O)=S; assay: purified protein; type: biochemical, Escherichia coli; conditions: pH 8.6; 25.0 °C
purified protein [4] = substrate: OC(CS)C(O)CS; assay: purified protein; type: biochemical, Escherichia coli; conditions: sulfur acceptor, 4 mM or 10 mM thiosulfate, Tris-acetate pH 8.6, PspE fraction not stated

Molecule: O=C(O)c1cc(SSc2ccc([N+](=O)[O-])c(C(=O)O)c2)ccc1[N+](=O)[O-] [5,5’-dithio-bis(2-nitrobenzoic acid)]
- chemical inactivation by cysteine reagent (PspE (fraction PspE2) [1]): PspE1 was much more tolerant to chemical inactivation by the cysteine-modifying reagent

Molecule: O=P(O)(O)O [sodium phosphate]
- % inhibition at 0.25 M (PspE (fraction PspE2) [2]): ~ 65%

Molecule: O=S(=O)(O)O [sodium sulfate]
- % inhibition at 0.25 M (PspE (fraction PspE2) [2]): ~ 50%

Molecule: O=S(O)O [sodium sulfite]
- % inhibition at 1 mM (PspE (fraction PspE2) [2]; rhodanese product as inhibitor, data not shown): > 50%

B1: PspE (fraction PspE2) (Escherichia coli K-12) (protein)
chain: T1 sequence (P23857 20-104)
notes: 85 residues, 9428 Da; untagged; overexpressed from pHC4.1 (pT7-7) in E. coli BL21(DE3), freeze-thaw extract, SP cation exchange; partly persulfide/sulfonate modified at single cysteine
- Km (purified protein [3]): 2.7 mM
- kcat (purified protein [3]): 64 s⁻¹
- Km (purified protein [4]): 10 mM
